US7820720B2 (TDT Limited, priority 2008, dated 2010)

Test: Terbinafine serum concentration after topical administration (LC-MSMS)
Assay type: in vivo, human
Conditions: topical terbinafine formulation, 6.0 mg dose; day 1 and week 12; all individuals, each time point, steady state and all trough levels
Procedure: Blood samples (2.7 ml) for the determination of terbinafine concentrations in serum were taken before the first application (0 hour) and 0.5, 1, 2, 4, 8, and 12 hours after administration of a 6.0 mg dose of topical terbinafine. The sample 12 hours following the first administration was taken before the second daily administration of the topical terbinafine formulation.
Serum samples for terbinafine were analyzed by LC-MSMS. The internal standard used was naftifine. Samples were prepared by adding 50 μL serum to 50 μL methanol and 300 μL of internal standard solution (50 μg/L naftifine in 9:1 acetonitrile/methanol solution). The solution was allowed to stand for 5 minutes, and then subjected to centrifugation. After centrifugation, 50 μL of the supernatant was added to 450 μL of the mobile phase solution.
The serum concentrations were measured at day 1 and week 12 of the study.

In the case of `CN(C/C=C/C#CC(C)(C)C)Cc1cccc2ccccc12` [terbinafine], the Terbinafine serum concentration was “less than 1 ng/ml”.
